Assay: Inhibition of human KISS1R expressed in CHO cells assessed as inhibition of KISS1R-mediated cell growth after 3 days by cell counting kit-8 assay

Row | SMILES | IC50 [µM]
1 | CNC(N)=NCCC[C@H](NC(=O)[C@H](CC(C)C)NC(=O)CNC(=O)[C@H](Cc1ccccc1)NC(=O)[C@H](CO)NC(=O)[C@H](CC(N)=O)NC(=O)[C@H](Cc1c[nH]c2ccccc12)NC(=O)[C@H](CC(N)=O)NC(=O)[C@H](N)Cc1ccc(O)cc1)C(=O)N[C@@H](Cc1ccccc1)C(N)=O | 0.087
2 | CC(C)C[C@H](NC(=O)CNC(=O)[C@H](Cc1ccccc1)NC(=O)[C@H](CO)NC(=O)[C@H](CC(N)=O)NC(=O)[C@H](Cc1c[nH]c2ccccc12)NC(=O)[C@H](CC(N)=O)NC(=O)[C@@H](N)Cc1ccc(O)cc1)C(=O)N[C@@H](CCCN=C(N)N)C(=O)N[C@@H](Cc1ccccc1)C(N)=O [(2S)-2-[(2S)-2-[(2S)-2-[(2S)-2-amino-3-(4-hydroxyphenyl)propanamido]butanediamido]-3-(1H-indol-3-yl)propanamido]-N-[(1S)-1-{[(1S)-1-[({[(1S)-1-{[(1S)-4-carbamimidamido-1-{[(1S)-1-carbamoyl-2-phenylethyl]carbamoyl}butyl]carbamoyl}-3-methylbutyl]carbamoyl}methyl)carbamoyl]-2-phenylethyl]carbamoyl}-2-hydroxyethyl]butanediamide] | 8.51

Source: BindingDB's records for doi:10.1021/jm401056w (Takeda Pharmaceutical, 2013)
